Results taken from the NIST ThermoML archive (doi:10.1016/j.fluid.2005.11.016).
Numbers after ± are expanded uncertainties.

What was measured:
[1] = Liquid
[2] = excess molar enthalpy (molar enthalpy of mixing); xn = mol fraction of the nth substance listed; conditions: 303.15 K, 101 kPa, Liquid, Calvet calorimetry

| SMILES | vapor or sublimation pressure ([1]; 263.15 K) [kPa] | vapor or sublimation pressure ([1]; 273.15 K) [kPa] | vapor or sublimation pressure ([1]; 283.15 K) [kPa] | vapor or sublimation pressure ([1]; 293.15 K) [kPa] | vapor or sublimation pressure ([1]; 303.15 K) [kPa] | vapor or sublimation pressure ([1]; 313.15 K) [kPa] | vapor or sublimation pressure ([1]; 323.15 K) [kPa] | vapor or sublimation pressure ([1]; 333.15 K) [kPa] | vapor or sublimation pressure ([1]; 343.15 K) [kPa] | vapor or sublimation pressure ([1]; 353.15 K) [kPa] | other results |
| --- | --- | --- | --- | --- | --- | --- | --- | --- | --- | --- | --- |
| Cc1cccc(C)n1 [2,6-dimethylpyridine] | 0.065 ± 0.007 | 0.143 ± 0.011 | 0.296 ± 0.017 | 0.575 ± 0.028 | 1.061 ± 0.048 | 1.868 ± 0.055 | 3.154 ± 0.066 | 5.129 ± 0.082 | 8.066 ± 0.11 | 12.31 ± 0.14 |  |
| Cc1cccc(C)n1 [2,6-dimethylpyridine] + Cc1ccccc1 |  |  |  |  |  |  |  |  |  |  | excess molar enthalpy ([2]; x1 = 0.0145): 0.0148 ± 0.00239 kcal/mol; excess molar enthalpy ([2]; x1 = 0.2129): 0.0198 ± 0.00239 kcal/mol; excess molar enthalpy ([2]; x1 = 0.2993): 0.0203 ± 0.00239 kcal/mol; excess molar enthalpy ([2]; x1 = 0.3406): 0.021 ± 0.00239 kcal/mol; excess molar enthalpy ([2]; x1 = 0.434): 0.0206 ± 0.00239 kcal/mol; excess molar enthalpy ([2]; x1 = 0.4479): 0.0208 ± 0.00239 kcal/mol; excess molar enthalpy ([2]; x1 = 0.5547): 0.0191 ± 0.00239 kcal/mol; excess molar enthalpy ([2]; x1 = 0.5885): 0.0182 ± 0.00239 kcal/mol; excess molar enthalpy ([2]; x1 = 0.6718): 0.0167 ± 0.00239 kcal/mol; excess molar enthalpy ([2]; x1 = 0.7056): 0.0163 ± 0.00239 kcal/mol; excess molar enthalpy ([2]; x1 = 0.7248): 0.0153 ± 0.00239 kcal/mol; excess molar enthalpy ([2]; x1 = 0.7746): 0.012 ± 0.00239 kcal/mol; excess molar enthalpy ([2]; x1 = 0.8563): 0.00837 ± 0.00239 kcal/mol |
| Cc1cncc(C)c1 [3,5-dimethylpyridine] | 0.016 ± 0.003 | 0.038 ± 0.005 | 0.083 ± 0.008 | 0.169 ± 0.012 | 0.325 ± 0.018 | 0.596 ± 0.029 | 1.049 ± 0.047 | 1.775 ± 0.055 | 2.904 ± 0.064 | 4.603 ± 0.079 |  |
| Cc1cncc(C)c1 [3,5-dimethylpyridine] + Cc1ccccc1 |  |  |  |  |  |  |  |  |  |  | excess molar enthalpy ([2]; x1 = 0.1248): 0.0131 ± 0.00239 kcal/mol; excess molar enthalpy ([2]; x1 = 0.1817): 0.0163 ± 0.00239 kcal/mol; excess molar enthalpy ([2]; x1 = 0.2194): 0.0186 ± 0.00239 kcal/mol; excess molar enthalpy ([2]; x1 = 0.3217): 0.0215 ± 0.00239 kcal/mol; excess molar enthalpy ([2]; x1 = 0.4079): 0.0253 ± 0.00239 kcal/mol; excess molar enthalpy ([2]; x1 = 0.5991): 0.0263 ± 0.00239 kcal/mol; excess molar enthalpy ([2]; x1 = 0.6191): 0.0256 ± 0.00239 kcal/mol |
| Cc1ccccc1 [toluene] | 0.468 ± 0.024 | 0.908 ± 0.043 | 1.666 ± 0.056 | 2.911 ± 0.07 | 4.873 ± 0.093 | 7.852 ± 0.13 | 12.23 ± 0.18 | 18.46 ± 0.26 | 27.12 ± 0.37 | 38.87 ± 0.52 |  |
